The text below walks through data of patent US10786459B2, “Twin-screw dry granulation for producing solid formulations” (R. P. Scherer Technologies LLC, priority 2016, dated 2020).

Where a name gives a salt, the structure may show the parent alone.

What all share (type): physicochemical
A short description of data set [1]: Thermogravimetric analysis (TGA) of OND. As to the method: Thermogravimetric analysis (TGA) was used to determine weight loss of OND due to dehydration. A weighed sample of OND was heated from 25° C. to 300° C. at a rate of 20° C./min in a platinum pan under an inert nitrogen atmosphere purge flowing at a rate of 20 ml per minute. Heating caused loss of 2 moles of loosely bound water from each mole of OND dihydrate.

A short description of data set [2]: Dynamic vapor sorption (DVS) of OND. The conditions noted are these: 25 °C. As to the method:
Dynamic vapor sorption (DVS) was then used to measure the weight loss of OND during an isotherm dehydration study. The DVS apparatus (Surface Measurement Systems, London, UK) was a commercially available water sorption apparatus, which allowed an OND sample to be weighed under defined temperature and humidity conditions. About 14 mg of OND was weighed onto an aluminum pan. The DVS apparatus was programmed to run from 0% to 90% relative humidity (RH) at increments of 10% RH and then again going from 90% back to 0% RH at decrements of 10% RH. The study was conducted at 25° C. and in triplicate. The accuracy of the DVS apparatus was ±1.0% for the RH and ±0.2° C. for the temperature.

The nature of data set [3]: Hot-stage microscopy (HSM) of OND. The conditions noted are these: heated 35 to 150 °C at 2 °C/min in silicone oil. As to the method:
Hot-stage microscopy (HSM) was used to capture images at different stages of OND transformation. A glass slide with a sample of a small amount of OND dispersed in silicone oil was inserted into a hot-stage system (FTIR 600, Linkam Scientific Instruments, Surrey, UK). The OND sample was examined while being heated from 35° C. to 150° C. at a constant rate of 2° C./min. A camera-mounted optical microscope (Cary 620 IR, Agilent Technologies, Santa Clara, Calif., USA) equipped with a hot-stage was used to capture images at different stages of the OND transformation.

Data set [4] in a line: DSC/FTIR compatibility and crystallinity of OND (Example 3). To be noted: 1:1 ratio. An excerpt: Differential scanning calorimetry (Diamond DSC, Perkin Elmer Life and Analytical Sciences, 710 Bridgeport Ave., Conn., USA) equipped with Pyris manager software (Shelton, Conn., USA) and Fourier transform infrared spectroscopy (FTIR, Agilent Technologies Cary 660, Santa Clara, Calif.) were used to study the compatibility of OND with various polymeric carriers in 1:1 ratio in a dry granulation process carried out in a twin-screw extruder to provide granules used to produce extended release tablets. Samples were prepared by hermetically sealing approximately 3-5 mg of pure OND or powder mixture in aluminum pans, which were then heated over a temperature range of 40-250° C. at a linear heating rate of 10° C./min under an inert nitrogen atmosphere. An FTIR bench equipped with a […]® attenuated total reflection (Pike Technologies, Madison, Wis.) was used to generate mid-infrared spectra in the range of 4000-650 cm-1, which was fitted with a single bounce diamond coated ZnSe internal reflection element. […] Thus, the crystalline structure of OND was preserved in the granules.

As to `Cc1nccn1CC1CCc2c(c3ccccc3n2C)C1=O` (stereo not drawn) [OND, Ondansetron HCl dihydrate], in data set [1] (TGA thermogram), the “temperature range of dehydration event (TGA)” value is 60-105 °C. In data set [1] (heated from 60-105 °C, 20 °C/min, nitrogen), the “weight lost (TGA)” value was “about 10%”. Moreover, the “weight gain (DVS)” value in data set [2] (RH increased beyond 20% up to 90%) is 9.2%; in data set [2] (RH increased from 0% to 10%) it was 2.67%; in data set [2] (RH increased to 20%) it was 8.9%. The “weight loss (DVS)” value in data set [2] (at 0% RH) is listed as 9.5%. Moreover, the “weight decrease (DVS)” value in data set [2] (desorption, at 10% RH) is recorded as “up to 4.44%”. For the same molecule, the “temperature at which crystals started dehydration (HSM)” value in data set [3] is 90 °C. In addition, the “compatibility of OND with polymeric carriers” value in data set [4] was “compatible”.
